Patent US20220280543A1, “DDX17 AND NLRC4 TARGETING FOR INFLAMMATORY DISEASES” (University of Virginia Patent Foundation, priority 2019, published 2022)

Columns and labels:
[1] = system: NLRC4; test: Alu RNA induced NLRC4 oligomers in human RPE cells, native PAGE; type: cell-based; settings: Alu RNA transfection vs mock (FIG. 24B)
From the text: FIGS. 24A and 24B. Alu RNA (SEQ ID NO: 86) induced NLRC4 activation in human RPE cells. To test whether Alu RNA (SEQ ID NO: 86) induces NLRC4 activation in human RPE, we transfected human RPE with Alu RNA (SEQ ID NO: 86 at 100 pmol). FIG. 24A. Immunofluorescence staining on NLRC4 show Alu RNA (SEQ ID NO: 86) induced cytosolic NLRC4 punctate in hRPE cells. The NLRC4 aggregates induced by Alu RNA (SEQ ID NO: 86) are indicated by white arrows. FIG. 24B. Alu RNA (SEQ ID NO: 86) induced NLRC4 (p-NLRC4) phosphorylation and oligomerization. Loading control show by Actin. NLRC4 oligomers were detected by Tris-glycine native PAGE. […] The band of NLRC4 oligomers is indicated by black arrow.
Next, we asked whether Alu RNA (SEQ ID NO: 86) also triggered NLRC4 inflammasome activation in human RPE cells. We performed immunofluorescence staining experiments to examine whether Alu RNA (SEQ ID NO: 86) can induce NLRC4 speck formation in human RPE cells. We noticed punctate structures resembling specks of NLRC4 in human RPE cells in response to Alu RNA (SEQ ID NO: 86) treatment (FIG. 24A). […] We further investigated downstream events of NLRC4 inflammasome activation by studying NLRC4-induced ASC oligomerization, a critical step involved in caspase-1 cleavage. NLRC4 siRNA, when co-administered with Alu RNA (SEQ ID NO: 86), blocked ASC oligomerization in vitro (FIG. 25A) and RPE degeneration in vivo (FIG. 25B).

[2] = target: DDX17 (Homo sapiens, UniProt Q92841); test: CLIP (cross-linking immunoprecipitation) of biotin-Alu RNA and DDX17 in HEK293 cells; type: binding; set-up: Myc; expressed in transfected cells; host or cells: HEK293; settings: UV cross-linking, streptavidin pull down (FIG. 8B)
From the text: FIGS. 8A-8C. CLIP (cross-linking immunoprecipitation) on Alu RNA (SEQ ID NO: 86) and Ddx17 interaction. Human HEK293 cell transfected with btn-Alu RNA (SEQ ID NO: 86), cross-linked by ultraviolet light, pull-downed by biotin-streptavidin. The binding of Ddx17 determined by western blot. FIG. 8A. Schematic of CLIP (cross-linking immunoprecipitation) for biotin or myc-tag mediated immunoprecipitation. FIG. 8B. […] WCL is whole cell lysates. The bands of pull downed DDX17 proteins by Alu RNA (SEQ ID NO: 86) were indicated by black arrow. FIG. 8C. The HEK293 cells were transfected with myc-tagged DDX17 and biotin-Alu RNA (SEQ ID NO: 86). Cells were cross-linked and lysates for immunoprecipitation by Anti-myc beads. The total RNA was extracted, and were the Alu RNA (SEQ ID NO: 86) were detected with Northern blot. […] The bands of pull-downed Alu RNA (SEQ ID NO: 86) by myc-DDX17 proteins were indicated by black arrow.
Next, we sought to identify the sensor responsible for Alu RNA (SEQ ID NO: 86) induced NLRC4 inflammasome activation. We employed cross-linking immunoprecipitation (CLIP)-mass spectrometry to reveal protein interaction partners of Alu RNA (SEQ ID NO: 86). […] Immunoprecipitation of the cell lysate with anti-Streptavidin (FIG. 8B) or Myc antibody (FIG. 8C) pulled down biotin-labelled Alu RNA (SEQ ID NO: 86), as detected by northern blotting. […]

[3] = system: NLRC4 phosphorylation (site S533); test: SINE RNA induced NLRC4 phosphorylation (S533) in BMDM, Western blot; type: cell-based, mouse; settings: SINE RNAs each at 100 pmol, polyI:C 10 μg/ml (FIG. 1)
Procedure: FIG. 1. SINE RNA induced NLRC4 phosphorylation (site S533) in mice macrophage (BMDM). Mouse bone marrow derived macrophage (BMDM) were treated with SINE RNAs (Alu (SEQ ID NO: 86), B1 (SEQ ID NO: 87), and B2 (SEQ ID NO: 88), each at 100 pmol), and polyI:C (10 μg/ml). Phosphorylated Nlrc4 (p-Nlrc4) and total Nlrc4 (t-Nlrc4) were detected by Western blot. Actin is provided as a loading control. The p-NLRC4 bands were indicated by black arrow.
Previous studies have shown that NLRC4 inflammasome activation in response to Salmonella exposure requires two steps for its activation, phosphorylation on Ser533 residue of NLRC4 and NAIP mediated oligomerization of NLRC4. […] Moreover, treatment with SINE RNAs induced caspase-1 p20 cleavage, indicative of inflammasome activation (FIG. 2). For the subsequent experiments in this study, we used Alu RNA (SEQ ID NO: 86) as the stimulus to activate the NLRC4 inflammasome. To date, two kinases are reported to phosphorylate NLRC4 at S533: protein kinase C delta (PKCδ) and leucine rich repeat-containing kinase-2 (LRRK2). To explore the roles of these kinases in Alu RNA (SEQ ID NO: 86) induced NLRC4 phosphorylation, we pretreated BMDMs with pharmacological inhibitors of LRRK2 (GSK2578215A, GSK) and PKCδ (Rottlerin, Rot) respectively.

DDX17, sequence (Q92841 whole entry, species assumed): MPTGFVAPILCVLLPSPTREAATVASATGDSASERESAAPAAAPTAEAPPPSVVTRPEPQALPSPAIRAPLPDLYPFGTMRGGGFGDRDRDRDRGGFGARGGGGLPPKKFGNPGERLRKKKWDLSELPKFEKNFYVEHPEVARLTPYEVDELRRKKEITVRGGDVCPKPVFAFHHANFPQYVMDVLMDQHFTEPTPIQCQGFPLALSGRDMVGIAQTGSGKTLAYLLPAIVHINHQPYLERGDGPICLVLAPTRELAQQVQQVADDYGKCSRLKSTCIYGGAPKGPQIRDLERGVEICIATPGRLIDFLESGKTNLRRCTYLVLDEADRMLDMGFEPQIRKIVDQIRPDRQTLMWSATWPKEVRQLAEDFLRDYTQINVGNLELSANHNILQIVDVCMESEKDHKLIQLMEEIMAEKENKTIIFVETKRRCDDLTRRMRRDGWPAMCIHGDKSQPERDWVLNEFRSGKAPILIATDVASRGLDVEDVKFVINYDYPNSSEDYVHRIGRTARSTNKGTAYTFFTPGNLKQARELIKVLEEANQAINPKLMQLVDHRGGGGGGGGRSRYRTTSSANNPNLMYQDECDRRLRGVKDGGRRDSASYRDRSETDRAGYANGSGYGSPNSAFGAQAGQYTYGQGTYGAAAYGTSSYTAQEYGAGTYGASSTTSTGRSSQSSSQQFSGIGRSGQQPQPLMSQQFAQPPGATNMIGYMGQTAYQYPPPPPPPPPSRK

Alu RNA: human SINE RNA, SEQ ID NO: 86
formation of NLRC4 oligomers, human RPE cells [1]: induced the formation of NLRC4 oligomers | binding of DDX17 to biotin-Alu RNA [2]: physically binds | NLRC4 phosphorylation on S533 in BMDMs [3]: induced
